Results taken from PMC5557545 (PLoS ONE, 2017).

Columns and labels:
[1] = tested on: endonuclease from detergent disrupted viral particles; design: method as in PMID 7695269; details: cited from earlier work
[2] = tested on: influenza virus transcription; details: cited from earlier work
[3] = target: influenza A polymerase acidic protein (PA), full length, N-terminal 3x FLAG tag (influenza A virus H1N1 strain A/PR/8) (UniProt P03433); test: AUC

For O=C(O)C(=O)CC(=O)c1ccc(-c2ccccc2)cc1 [Compound A, 4-([1,1'-biphenyl]-4-yl)-2,4-dioxobutanoic acid], the IC50 [1] is given as 3700 nM.
For O=C(O)C(=O)CC(=O)C1(Cc2ccc(Cl)cc2)CCN(Cc2ccc(Cl)cc2)CC1 [Compound B, 4-(1,4-bis(4-chlorobenzyl)piperidin-4-yl)-2,4-dioxobutanoic acid], the IC50 [2] is listed as 1100 nM.
Work on “influenza A polymerase acidic protein (PA), full length, N-terminal 3x FLAG tag (from UniProt P03433 1-716) (natural protein)” yielded a percent dimer [3] of 10%.
